This is an account of results in US20040116348A1, “Polymer-linker-drug conjugates for targeted drug delivery” (priority 2002, published 2004).

The test system of data set [1] is PC-3 (a human prostate tumor cell line). Description: MTT cytotoxicity, PC-3. In kind it is cell-based. As for the experimental part:
(§1) Open circles in FIGS. 6A-F represent free doxorubicin and closed circles represent LIG-doxorubicin.
(§2) Cell survival was assayed using an indirect colorimetric […] (MTT assay, e.g., see Alley et al., Cancer Res. 48:589, 1988). The tetrazolium salt MTT is metabolized by NAD-dependent dehydrogenase to form a colored reaction product and the amount of dye formed directly correlates with the number of viable cells. The formula for calculating % survival is given by:
(§3) %survival=(Ti−Tz)/(C−Tz) if Ti≧Tz or
(§4) %survival=(Ti−Tz)/Tz if Ti<Tz
(§5) where Ti=Net MTT reading of test growth in the presence of drugs; Tz=Net MTT reading at time zero with respect to the drug test; and C=Net MTT reading of control growth (see Grever et al., Seminars in Oncology, 19:622, 1992 and Boyd and Paull, Drug Development Research 34:91, 1995).

In data set [2] the test system is KK-47 (a human bladder tumor cell line). Description: MTT cytotoxicity, KK-47. In kind it is cell-based. The protocol: as §1, §2, §3, §4, §5
The subject of data set [3] is BT-20 (a human breast carcinoma line). In words: MTT cytotoxicity, BT-20. In kind it is cell-based. As for the experimental part: as §1, §2, §3, §4, §5
(§6) The cytotoxicity of methotrexate and various peptidyl-methotrexates were compared in order to assess bulk tolerance. The peptidyl-methotrexates were prepared by linking short peptides of three to four amino acids to methotrexate. […] Methotrexate was covalently coupled to the N-terminal end of the peptides via the γ-carboxyl of its glutamic acid (Nagy et al., Proc. Nat. Acad. Sci. USA 90:6373, 1993). […] Cytotoxicity was assayed as described above in Example 4. […] Example 8 describes the synthesis of certain dextran-oligopeptide-methotrexate conjugates.

The test system of data set [4] is MGH-U1 (a human bladder cell line). In words: MTT cytotoxicity, MGH-U1. The class given is cell-based. As for the experimental part:
as §1, §2, §3, §4, §5

Data set [5] relates to U-87 (a human glioblastoma cell line). In words: MTT cytotoxicity, U-87. The class given is cell-based. As for the experimental part: as §1, §2, §3, §4, §5
The subject of data set [6] is HT-1080 (a human fibrosarcoma line). Description: MTT cytotoxicity, HT-1080. In kind it is cell-based. As for the experimental part: as §1, §2, §3, §4, §5, §6
A further data set has as its system human tumor cell lines. In words: MTT cytotoxicity, overall statement over the panel of human tumor cell lines. In kind it is cell-based. The note with it: three human tumor cell lines. As for the experimental part: Cell survival was assayed using an indirect colorimetric […] (MTT assay, e.g., see Alley et al., Cancer Res. 48:589, 1988). The tetrazolium salt MTT is metabolized by NAD-dependent dehydrogenase to form a colored reaction product and the amount of dye formed directly correlates with the number of viable cells. The formula for calculating % survival is given by: […]

The test system of data set [7] is RT-112 (human urinary bladder transitional carcinoma line). In words: MTT cytotoxicity, RT-112. The class given is cell-based. The protocol:
as §2, §3, §4, §5
The cytotoxicity of methotrexate and various peptidyl-methotrexates were compared in order to assess bulk tolerance. The peptidyl-methotrexates were prepared by linking short peptides of three to four amino acids to methotrexate. The peptides were chosen to represent appropriate cleavage fragments from the MMP-2 sensitive substrate peptide IPVGLIG that was characterized in Examples 1-2. Methotrexate was covalently coupled to the N-terminal end of the peptides via the γ-carboxyl of its glutamic acid (Nagy et al., Proc. Nat. Acad. Sci. USA 90:6373, 1993). […]

The nature of data set [8]: Body weight change as indicator of toxic side effects in SCID mice bearing HT-1080 tumors. The note with it: 50 mg methotrexate/kg i.p. on day 1, 8 and 15.
Experimental: After 7-10 days, tumors of size 150-300 mm^3 were established on each mouse. […] Weight and tumor size were monitored three times a week. Tumor size was calculated as width^2×length×0.52. […] As a second control, another group of mice were injected with phosphate buffered saline. Each group included three mice.
A further data set concerns HT-1080 tumors. In words: In vivo anti-tumor efficacy in SCID mice bearing HT-1080 tumors. The note with it: end of study; 50 mg methotrexate/kg i.p. on day 1, 8 and 15. The protocol:
Each group included three mice.
The dosage chosen for these experiments was based on the reported optimum dosage of free methotrexate for treating tumor-bearing mice (Burger et al., Int. J. Cancer 92:718, 2001). Three weekly injections at 50 mg of methotrexate/kg of body weight was half the maximum tolerated dosage. In another set of experiments the dosage was increased to three weekly injections of 100 mg/kg, or to injections of 50 mg/kg twice per week.

Regarding `CC[C@H](C)[C@H](NC(=O)[C@@H](N)CC(C)C)C(=O)NCC(=O)N[C@H]1C[C@H](O[C@H]2C[C@](O)(C(=O)CO)Cc3c(O)c4c(c(O)c32)C(=O)c2c(OC)cccc2C4=O)O[C@@H](C)[C@H]1O` [LIG-doxorubicin], the “cytotoxicity (% survival, MTT)” value in [1], in data set [2], in data set [3], in [4], in data set [5] and in [6] was “cytotoxic” each time.
As to `CC(C)[C@H](NC(=O)[C@@H]1CCCN1C(=O)CC[C@H](NC(=O)c1ccc(N(C)Cc2cnc3nc(N)nc(N)c3n2)cc1)C(=O)O)C(=O)NCC(=O)O` [methotrexate-PVG], the “cytotoxicity relative to free methotrexate” value in the data set on human tumor cell lines is on record as “comparable”. The “cytotoxicity (% survival, MTT)” value in data set [7], in data set [3] and in [6] was “cytotoxic” in each case.
As for `CN(Cc1cnc2nc(N)nc(N)c2n1)c1ccc(C(=O)N[C@@H](CCC(=O)O)C(=O)O)cc1` [methotrexate], the “body weight drop compared to initial weight” value in data set [8] is 13%. Moreover, in the data set on HT-1080 tumors, the “tumor growth suppression compared to saline control” value is 48%.
